“Also recorded” adds a separate entry of the source.
System: black willow (Salix nigra) roots
Assay: Foam application to exposed roots of greenhouse-grown black willow cuttings; roots evaluated 25 days after treatment
Conditions: for Dry Weight of Roots, Dead Roots / Dry Weight of Roots, Live Roots: 20 min contact, twenty-five days following treatment, average of 24 willow cuttings; for Effect on treated roots (visual inspection, living roots / root growth): foam application, twenty-five days following treatment (FIG. 3, FIG. 4)
Protocol: Individual branch cuttings of black willow (Salix nigra) were collected and grown in containers according to methods described in Groninger and Bohanek 2000, J. of Plant Growth Regulation 19:453-456. The cuttings were rooted in 262 ml tubes containing a 1:1 mixture of peat moss and white washed play sand. Tubes were perforated with a 2 cm^2 hole in the bottom and four 1.4 cm^2 holes on the side, 2 cm from the bottom of the tube. Cuttings were grown under greenhouse conditions in racks containing 12 tubes each with one cutting per tube. To facilitate root growth outside of the tube, the racks were placed in aluminum pans and positioned so that the base of each tube was suspended in dilute nutrient solution. Water was added as needed and a 20-20-20-NPK fertilizer was provided at a rate of 0.04 g/cutting per week into the pan. Root growth was further facilitated by maintaining the root zone in darkness by covering gaps between the edge of the rack and the pan with aluminum foil. When cuttings had been growing for approximately four months, intermingling exposed roots from adjacent cuttings were separated from one another and fine roots were allowed to regrow. Treatment were initiated when shoots averaged 0.8 meters in height with healthy foliage. At the time of treatment, each cutting produced profuse growth of roots 0.3 cm in diameter or less.
Roots of the cuttings were exposed to paraquat, diquat, Rootex, a rooting hormone, and a control. Paraquat (Gramoxone Max®, Syngenta, containing 43.8% paraquat) was applied to roots cuttings at two rates, 2.0 and 4.0 ml/L. Diquat (Reward®, Syngenta, containing 37.3% diquat) was applied at 4.0 ml/L. Each treatment of the four treatments were applied in 1.0 L water solution with a 2% alkyl polyglycoside-based foaming agent, AU-340 (Adjuvants Unlimited, Tulsa, Okla.) using a foam generator to simulate a standard application of chemicals in controlling tree roots in sewer lines. Roots were placed in contact with foam solution for 20 minutes. […] Upon removal of foam solution, cuttings and their exposed roots were returned to pretreatment nutrient conditions with residual foam permitted to maintain contact with exposed roots.
Evaluation of roots was conducted twenty-five days following treatment. Roots were visually inspected, harvested, separated into living and dead groups, dried and weighed for dry mass determination.

| Structure (SMILES) | Dry Weight of Roots, Dead Roots (4.0 ml/L of stock in foam) [g/willow cutting] | Dry Weight of Roots, Live Roots (4.0 ml/L of stock in foam) [g/willow cutting] | Effect on treated roots (visual inspection, living roots / root growth) | Dry Weight of Roots, Dead Roots (2.0 ml/L of stock in foam) [g/willow cutting] | Dry Weight of Roots, Live Roots (2.0 ml/L of stock in foam) [g/willow cutting] | Damage to the upper portion of the trees (green house testing, applied as a dense foam to tree roots) |
| --- | --- | --- | --- | --- | --- | --- |
| c1cc[n+]2c(c1)-c1cccc[n+]1CC2 [Diquat] | 0.9 | 0 | No living roots | – | – | – |
| C[n+]1ccc(-c2cc[n+](C)cc2)cc1 [Paraquat, 1,1′-dimethyl-4,4′-bipyridium ion] | 2.2 | 0 | destruction of the test roots; also recorded: No living roots | 0.7 | 0 | without causing damage |
